The results in this text go back to patent publication US8290713B2, “Method for predicting protein aggregation and designing aggregation inhibitors” (Lonza Biologics PLLC, priority 2006, dated 2012).

For the test, the target named is ASYN (α-synuclein) (Homo sapiens, UniProt P37840). The experiment in a line: ASYN aggregation assay in TBS monitored by thioflavin T fluorescence. Format: biochemical. Particulars: 50 μM ASYN, 100 μM inhibitor, 50 mM tris, 150 mM NaCl, 20 μM Thioflavin T, 37 C with shaking, 48 hours; sigmoidal fit. The procedure:
All peptides were tested for inhibition of ASYN aggregation in TBS by carrying out aggregation assays with 50 μM ASYN and 100 μM inhibitor with 50 mM tris and 150 mM NaCl and 20 μM Thioflavin T. The reaction volume was 200 μL. Each reaction was set up in a 96 well polypropylene plate with ASYN only and buffer only controls. The reactions were incubated at 37 C with shaking for 48 hours and aggregation was monitored by reading thioflavin T fluorescence.
The kinetic traces were fitted using Zyentiafit software which fits the data to a Sigmoidal function f(x)=k+A/(1+exp(−b(t−t0))) from which the lag time, rate of aggregation and total change in ThT fluorescence may be calculated.

In the case of Ac-hpviva-NH2 [ZP-0164], the “% decrease in ThT fluorescence” value came to 3.7%, the “% decrease in rate of aggregation” value was −2.3% and the “% increase in Lag phase” value is given as 43.0%.
